Consider 22 compounds from US10941129B2, “Benzyl phenyl ether derivative, preparation method therefor, and pharmaceutical composition and uses thereof” (Institute of Materia Medica, Chinese Academy of Medical …, priority 2016, dated 2021).

SMILES strings stand for the structures. A value given as a limit tells only on which side of the number the result lay.

interaction between PD-1 and PD-L1, sequence (Q9NZQ7 19-238): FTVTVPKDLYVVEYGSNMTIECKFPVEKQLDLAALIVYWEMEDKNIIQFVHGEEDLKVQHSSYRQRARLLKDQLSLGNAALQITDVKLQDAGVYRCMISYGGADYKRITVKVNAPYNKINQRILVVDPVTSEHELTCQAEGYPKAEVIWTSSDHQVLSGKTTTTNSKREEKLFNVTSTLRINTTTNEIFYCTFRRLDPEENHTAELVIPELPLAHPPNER

The test deals with interaction between PD-1 and PD-L1 (Homo sapiens (Human), UniProt Q9NZQ7). Put plainly: Cisbio PD-1/PD-L1 binding assay kit (HTRF). The following applies: read-out: IC50, inhibitory activity at molecular level on the interaction between PD-1 and PD-L1. The text has this:
1. In vitro activity evaluation: Cisbio PD-1/PD-L1 binding assay kit was applied for the detection method of in vitro enzymology level.
1) Principle: PD-1 protein is with HIS tag, and PD-1 ligand PD-L1 is with hFc tag. Eu labeled anti-hFc antibody and XL665 labeled anti-HIS antibody are combined with the above two label proteins respectively. After laser excitation, energy can be transferred from donor Eu to receptor XL665, allowing XL665 to glow.
2) Experimental method: The specific method can be referred to Cisbio's PD-1/PD-L1 Kit (item 64CUS000C-2). Reagents should be dispensed in the following order. For 384-well white ELISA plate, 2 μl of diluent or target compound diluted with diluent was added to each well, and then 4 μl of PD-1 protein and 4 μl of PD-L1 protein were added per well, incubated for 15 min at room temperature; and 10 μl of a mixture of anti-Tag1-Eu3^+ and anti-Tag2-XL665 was added per well and incubated for 1 h to 4 h at room temperature and the fluorescence signals at 665 nm and 620 nm were measured with an Envison instrument. HTRF rate=(665 nm/620 nm)*10^4. 8-10 concentrations were detected for each compound and IC50 was calculated by Graphpad software.
The IC50 is the midpoint of a concentration-inhibition curve. Regarding `CS(=O)(=O)c1cccc(COc2cc(OCc3cccc(-c4ccccc4)c3Br)c(Cl)cc2CN[C@H](CO)C(=O)O)c1` (stereo in doubt) [Example 27, N-(4-(2-bromo-3-phenylbenzyloxy)-5-chloro-2-(3-methanesulfonylbenzyloxy)benzyl) serine], the IC50 was no more than 10 nM. For `C[C@H](O)[C@@H](NCc1ccc(OCc2cccc(-c3ccc4c(c3)OCCO4)c2Br)cc1OCc1cccc(C#N)c1)C(=O)O` (stereo in doubt) [Example 19, N-(4-(2-bromo-3-(2,3-dihydrobenzo[b][1,4]dioxin-6-yl)benzyloxy)-2-(3-cyanobenzyloxy)benzyl) threonine] the value was 18.1 nM; for `CSCC[C@H](NCc1ccc(OCc2cccc(-c3ccccc3)c2Br)cc1OCc1cccc(C#N)c1)C(=O)O` [Example 7, N-(4-(2-bromo-3-phenylbenzyloxy)-2-(3-cyanobenzyloxy)benzyl) methionine], 4590 nM. For the compound `C[C@@H](NCc1cc(Cl)c(OCc2cccc(-c3ccccc3)c2Br)cc1OCc1cccc(C#N)c1)C(=O)O` (stereo in doubt) [Example 25, N-(4-(2-bromo-3-phenylbenzyloxy)-5-chloro-2-(3-cyanobenzyloxy)benzyl)alanine], the 50% inhibitory concentration (IC50) is 3.16 nM. For `CC(=O)NCCNCc1ccc(OCc2cccc(-c3ccccc3)c2Br)cc1OCc1cccc(C#N)c1` [Example 1, N-acetylaminoethyl-4-(2-bromo-3-phenylbenzyloxy)-2-(3-cyanobenzyloxy) benzylamine], the IC50 worked out at 439 nM. For `C[C@H](O)[C@@H](NCc1ccc(OCc2cccc(-c3ccccc3)c2Br)cc1OCc1cccc(C#N)c1)C(=O)O` (stereo in doubt) [Example 8, N-(4-(2-bromo-3-phenylbenzyloxy)-2-(3-cyanobenzyloxy)benzyl) threonine] the value was 134 nM; for `COc1ccc(-c2cccc(COc3ccc(CNCCNC(C)=O)c(OCc4cccc(C#N)c4)c3)c2Br)cc1OC` [Example 14, N-acetylaminoethyl-4-(2-bromo-3-(3,4-dimethoxyphenyl)benzyloxy)-2-(3-cyanobenzyloxy) benzylamine], 6650 nM.

Turning to `N#Cc1cccc(COc2cc(OCc3cccc(-c4ccc5c(c4)OCCO5)c3Br)ccc2CN[C@@H](CO)C(=O)O)c1` [Example 18, N-(4-(2-bromo-3-(2,3-dihydrobenzo[b][1,4]dioxin-6-yl)benzyloxy)-2-(3-cyanobenzyloxy)benzyl) serine], the IC50 worked out at 38.5 nM. Turning to `N#Cc1cccc(COc2cc(OCc3cccc(-c4ccccc4)c3Br)ccc2CN[C@@H](CO)C(=O)O)c1` [Example 2, N-(4-(2-bromo-3-phenylbenzyloxy)-2-(3-cyanobenzyloxy)benzyl) serine], the IC50 stood at 29.4 nM. For `C[C@H](O)[C@@H](NCc1cc(Cl)c(OCc2cccc(-c3ccccc3)c2Br)cc1OCc1cccc(C#N)c1)C(=O)O` (stereo in doubt) [Example 26, N-(4-(2-bromo-3-phenylbenzyloxy)-5-chloro-2-(3-cyanobenzyloxy)benzyl) threonine] the value was no more than 10 nM; for `CCN(CCO)Cc1ccc(OCc2cccc(-c3ccccc3)c2Br)cc1OCc1cccc(C#N)c1` [Example 3, N-Ethyl-N-hydroxylethyl-4-(2-bromo-3-phenylbenzyloxy)-2-(3-cyanobenzyloxy) benzylamine], 230 nM; for `N#Cc1cccc(COc2cc(OCc3cccc(-c4ccc5c(c4)OCCO5)c3Br)c(Cl)cc2CN2CCCC[C@H]2C(=O)O)c1` [Example 24, (S)—N-(4-(2-bromo-3-(2,3-dihydrobenzo[b][1,4]dioxin-6-yl)benzyloxy)-5-chloro-2-(3-cyanobenzyloxy)benzyl) pipecolinic acid], 67.5 nM. Turning to `COc1ccc(-c2cccc(COc3ccc(CN[C@@H](CO)C(=O)O)c(OCc4cccc(C#N)c4)c3)c2Br)cc1OC` [Example 13, N-(4-(2-bromo-3-(3,4-dimethoxyphenyl)benzyloxy)-2-(3-cyanobenzyloxy)benzyl) serine], the concentration for half-maximal inhibition (IC50) turned out to be 5350 nM. For `CS(=O)(=O)c1cccc(COc2cc(OCc3cccc(-c4ccccc4)c3Br)c(Cl)cc2CN2CCCC[C@H]2C(=O)O)c1` (stereo in doubt) [Example 28, N-(4-(2-bromo-3-phenylbenzyloxy)-5-chloro-2-(3-methanesulfonylbenzyloxy)benzyl) pipecolinic acid] the value was no more than 10 nM; for `COc1ccc(-c2cccc(COc3ccc(CNCCO)c(OCc4cccc(C#N)c4)c3)c2Br)cc1OC` [Example 11, N-hydroxylethyl-4-(2-bromo-3-(3,4-dimethoxyphenyl)benzyloxy)-2-(3-cyanobenzyloxy) benzylamine], 7870 nM. For `N#Cc1cccc(COc2cc(OCc3cccc(-c4ccccc4)c3Br)ccc2CN2CCC[C@H]2C(=O)O)c1` [Example 4, N-(4-(2-bromo-3-phenylbenzyloxy)-2-(3-cyanobenzyloxy)benzyl) proline] the value was 59.2 nM; for `C[C@H](NCc1ccc(OCc2cccc(-c3ccccc3)c2Br)cc1OCc1cccc(C#N)c1)C(=O)O` [Example 6, N-(4-(2-bromo-3-phenylbenzyloxy)-2-(3-cyanobenzyloxy)benzyl) alanine], 178 nM; for `N#Cc1cccc(COc2cc(OCc3cccc(-c4ccccc4)c3Br)ccc2CNCCO)c1` [Example 5, N-hydroxylethyl-4-(2-bromo-3-phenylbenzyloxy)-2-(3-cyanobenzyloxy) benzylamine], 307 nM. For `COc1ccc(-c2cccc(COc3ccc(CN[C@@H](C)C(=O)O)c(OCc4cccc(C#N)c4)c3)c2Br)cc1OC` [Example 17, N-(4-(2-bromo-3-(3,4-dimethoxyphenyl)benzyloxy)-2-(3-cyanobenzyloxy)benzyl) alanine], the IC50 was 3160 nM. In the case of `N#Cc1cccc(COc2cc(OCc3cccc(-c4ccccc4)c3Br)ccc2CNC2CCOCC2)c1` [Example 9, N-(tetrahydro-2H-pyran-4-yl)-4-(2-bromo-3-phenylbenzyloxy)-2-(3-cyanobenzyloxy) benzylamine] it was 788 nM; in that of `CC(=O)NCCNCc1ccc(OCc2cccc(-c3ccc4c(c3)OCCO4)c2Br)cc1OCc1cccc(C#N)c1` [Example 16, N-acetylaminoethyl-4-(2-bromo-3-(2,3-dihydrobenzo[b][1,4]dioxin-6-yl)benzyloxy)-2-(3-cyanobenzyloxy) benzylamine], 268 nM. Turning to `N#Cc1cccc(COc2cc(OCc3cccc(-c4ccccc4)c3Br)c(Cl)cc2CN[C@@H](CO)C(=O)O)c1` [Example 20, N-(4-(2-bromo-3-phenylbenzyloxy)-5-chloro-2-(3-cyanobenzyloxy)benzyl) serine], the IC50 was 2.48 nM.
